Experimental data as given in patent US20220274947A1, “NOVEL HETEROARYL-TRIAZOLE COMPOUNDS AS PESTICIDES” (Bayer Aktiengesellschaft, priority 2019, published 2022).

Legend:
Assay type in all cases: in vivo
Spodoptera frugiperda = Spodoptera frugiperda spray test; conditions: in Zea mays, 168 h, read-out: activity (mortality)
Protocol: Spodoptera Fruaiperda—Spray Test
Solvent: 78.0 parts by weight acetone • 1.5 parts by weight dimethylformamide Emulsifier: alkylarylpolyglycol ether
(§1) To produce a suitable preparation of active compound, 1 part by weight of active compound is mixed with the stated amount of solvents and is diluted with water, containing an emulsifier concentration of 1000 ppm, to the desired concentration. Further test concentrations are prepared by dilution with emulsifier containing water.
Maize (Zea mays) leaf sections are sprayed with a preparation of the active ingredient of the desired concentration. Once dry, the leaf sections are infested with fall armyworm larvae (Spodoptera frugiperda).
After 7 days mortality in % is determined. 100% means all caterpillars have been killed and 0% means none of the caterpillars have been killed.

Rhipicephalus microplus [1] = experiment: Rhipicephalus (Boophilus) microplus in-vitro contact test, larval cattle tick, strain Parkhurst (BOOPMI Cont); conditions: application rate 5 μg/cm^2 (=500 g/ha), tick larvae, after 48 hours, read-out: activity (efficacy: 100% means all larvae are dead or moribund)
Protocol: Rhipicephalus (Boophilus) Microplus—In-Vitro Contact Tests Larval Cattle Tick (Strain Parkhurst, Resistant Against Synthetic Pyrethroids) (BOOPMI Cont)
9 mg compound is solved in 1 mL acetone and diluted with acetone to the desired concentration. 250 μL of the test solution is filled in 25 mL glass test tubes and homogeneously distributed on the inner walls by rotation and tilting on a shaking device (2 h at 30 rpm). With a compound concentration of 900 ppm, an inner surface of 44.7 cm^2 and a homogeneous distribution, a dose of 5 μg/cm^2 is achieved.
After the solvent has evaporated, each test tube is filled with 20-50 cattle tick larvae (Rhipicephalus microplus), closed with a perforated lid and incubated in a horizontal position at 85% relative humidity and 27° C. in an incubator. After 48 hours efficacy is determined. The larvae are patted on the ground of the tubes and negative geotactic behavior is recorded.
An efficacy of 100% means all larvae are dead or moribund; 0% means no larvae are dead or moribund.

Rhipicephalus microplus [2] = experiment: Rhipicephalus (Boophilus) microplus injection test (BOOPMI Inj); conditions: 168 h, injection into adult engorged female ticks, egg deposition after 7 days, read-out: activity (efficacy: 100% means all eggs are infertile); for pest or weed control at 0.004 mg: application rate 4 μg/tick; for pest or weed control at 0.02 mg: application rate 20 μg/tick
Protocol: Rhipicephalus (Boophilus) Microplus—Injection Test (BOOPMI Inj)
Solvent: dimethyl sulfoxide
To produce a suitable preparation of active compound, 10 mg of active compound are dissolved in 0.5 mL solvent, and the concentrate is diluted with solvent to the desired concentration.
Five adult engorged female ticks (Rhipicephalus microplus) are injected with 1 μL compound solution into the abdomen. The ticks are transferred into replica plates and incubated in a climate chamber.
After 7 days egg deposition of fertile eggs is monitored. Eggs where fertility is not visible are stored in a climate chamber till hatching after about 42 days. An efficacy of 100% means all eggs are infertile; 0% means all eggs are fertile.

Diabrotica balteata = Diabrotica balteata spray test; conditions: 168 h, wheat seeds, larvae, after 7 days, read-out: activity (efficacy: 100% means all seedlings have grown up like in the untreated, uninfected control); for pest or weed control at 32 µg/disc, 100 g/ha: application rate 100 g/ha (=32 μg/well); for pest or weed control at 160 µg/disc, 500 g/ha: application rate 500 g/ha (=160 μg/well)
Protocol: Diabrotica balteata—Spray Test Solvent: 78.0 parts by weight of acetone • • 1.5 parts by weight of dimethylformamide Emulsifier: alkylarylpolyglycol ether
as §1, with “solvent,” for “solvents”, “and the concentrate” for “and”
Soaked wheat seeds (Triticum aestivum) are placed in a multiple well plate filled with agar and some water and are incubated for 1 day to germinate (5 seeds per well). The germinated wheat seeds are sprayed with a test solution containing the desired concentration of the active ingredient. Afterwards each unit is infected with 10-20 larvae of the banded cucumber beetle (Diabrotica balteata).
After 7 days efficacy in % is determined. 100% means all the seedlings have grown up like in the untreated, uninfected control; 0% means none of the seedlings have grown.

Rhipicephalus sanguineus = Rhipicephalus sanguineus in-vitro contact test, adult brown dog ticks (RHIPSA Cont); conditions: 48 h, after 48 hours, read-out: activity (efficacy: 100% means all ticks are dead or moribund); for pest or weed control at 1 µg/cm2, 100 g/ha: application rate 1 μg/cm^2 (=100 g/ha); for pest or weed control at 5 µg/cm2, 500 g/ha: application rate 5 μg/cm^2 (=500 g/ha)
Protocol: Rhipicephalus sanguineus-In-Vitro Contact Tests with Adult Brown Dog Ticks ([…] Cont) 9 mg compound is solved in 1 mL acetone and diluted with acetone to the desired concentration. 250 μL of the test solution is filled in 25 mL glass test tubes and homogeneously distributed on the inner walls by rotation and tilting on a shaking device (2 h at 30 rpm). […] After 48 hours efficacy is determined. The ticks are patted on the ground of the tubes and are incubated on a heating plate at 45-50° C. for at most 5 minutes. Immotile or uncoordinated moving ticks, which are not able to escape the heat by climbing upwards, are marked as dead or moribund.

## CC(NC(=O)c1cc(Cl)cc(Cl)c1)c1nc(Cl)nn1-c1ccc(C#N)cn1 (stereo not drawn) [I-58]
Spodoptera frugiperda
  mortality at 100 g/ha: 83%
Rhipicephalus microplus [1]
  pest or weed control at 5 µg/cm2: 100%

## CC(NC(=O)c1cncc(C(F)(F)F)c1)c1nc(Cl)nn1-c1ccc(C#N)cn1 (stereo not drawn) [I-59]
Spodoptera frugiperda
  mortality at 100 g/ha: 100%
Rhipicephalus microplus [1]
  pest or weed control at 5 µg/cm2: 100%
Rhipicephalus microplus [2]
  pest or weed control at 0.004 mg: 80%

## CC(NC(=O)c1cc(Cl)cc(OC(F)(F)F)c1)c1nc(Cl)nn1-c1ccc(C#N)cn1 (stereo not drawn) [I-60]
Spodoptera frugiperda
  mortality at 100 g/ha: 83%
Diabrotica balteata
  pest or weed control at 32 µg/disc, 100 g/ha: 100%
Rhipicephalus microplus [1]
  pest or weed control at 5 µg/cm2: 100%

## COc1nc([C@H](C)NC(=O)c2cc(F)cc(C#N)c2)n(-c2ccc(C#N)cn2)n1 [I-62]
Diabrotica balteata
  pest or weed control at 32 µg/disc, 100 g/ha: 100%
Rhipicephalus microplus [1]
  pest or weed control at 5 µg/cm2: 90%
Rhipicephalus microplus [2]
  pest or weed control at 0.004 mg: 100%

## Cc1nc([C@H](C)NC(=O)c2cccc(Cl)n2)n(-c2ccc(C#N)cn2)n1 [II-51]
Rhipicephalus sanguineus
  pest or weed control at 1 µg/cm2, 100 g/ha: 100%
  pest or weed control at 5 µg/cm2, 500 g/ha: 100%
Rhipicephalus microplus [1]
  pest or weed control at 5 µg/cm2: 90%
Rhipicephalus microplus [2]
  pest or weed control at 0.004 mg: 100%
  pest or weed control at 0.02 mg: 100%

## Cc1nc([C@H](C)NC(=O)c2cc(Br)cc(C(F)(F)F)n2)n(-c2ccc(C#N)cn2)n1 [II-55]
Rhipicephalus microplus [1]
  pest or weed control at 5 µg/cm2: 100%
Rhipicephalus microplus [2]
  pest or weed control at 0.004 mg: 100%
  pest or weed control at 0.02 mg: 100%

## Cc1nc([C@H](C)NC(=O)c2ccc(Cl)cn2)n(-c2ccc(C#N)cn2)n1 [II-56]
Rhipicephalus microplus [1]
  pest or weed control at 5 µg/cm2: 80%
Rhipicephalus microplus [2]
  pest or weed control at 0.004 mg: 80%
  pest or weed control at 0.02 mg: 100%

## C[C@H](NC(=O)c1cc(Br)cc(C(F)(F)F)n1)c1ncnn1-c1ccc(C#N)cn1 [II-58]
Rhipicephalus microplus [2]
  pest or weed control at 0.02 mg: 0%

## C[C@H](NC(=O)c1cc(Cl)cc(C(F)(F)C(F)(F)F)c1)c1ncnn1-c1nccs1 [II-66]
Spodoptera frugiperda
  mortality at 500 g/ha: 100%
Diabrotica balteata
  pest or weed control at 32 µg/disc, 100 g/ha: 100%
  pest or weed control at 160 µg/disc, 500 g/ha: 100%
Rhipicephalus microplus [1]
  pest or weed control at 5 µg/cm2: 100%
Rhipicephalus microplus [2]
  pest or weed control at 0.004 mg: 100%
  pest or weed control at 0.02 mg: 100%

## C[C@H](NC(=O)c1cc(Cl)cc(C(F)(F)C(F)(F)F)c1)c1ncnn1-c1ncc(Br)s1 [II-67]
Spodoptera frugiperda
  mortality at 500 g/ha: 100%
Diabrotica balteata
  pest or weed control at 160 µg/disc, 500 g/ha: 100%
Rhipicephalus microplus [1]
  pest or weed control at 5 µg/cm2: 100%
Rhipicephalus microplus [2]
  pest or weed control at 0.004 mg: 100%
  pest or weed control at 0.02 mg: 100%

## C[C@H](NC(=O)c1cc(Cl)cc(C(F)(F)C(F)(F)F)c1)c1ncnn1-c1ncc(Cl)s1 [II-68]
Rhipicephalus sanguineus
  pest or weed control at 5 µg/cm2, 500 g/ha: 100%
Spodoptera frugiperda
  mortality at 500 g/ha: 83%
Diabrotica balteata
  pest or weed control at 32 µg/disc, 100 g/ha: 100%
  pest or weed control at 160 µg/disc, 500 g/ha: 100%
Rhipicephalus microplus [1]
  pest or weed control at 5 µg/cm2: 100%
Rhipicephalus microplus [2]
  pest or weed control at 0.004 mg: 80%
  pest or weed control at 0.02 mg: 100%

## CC(C)Oc1cc(Br)cc(C(=O)N[C@@H](C)c2ncnn2-c2ccc(C#N)cn2)c1 [II-108]
Rhipicephalus sanguineus
  pest or weed control at 1 µg/cm2, 100 g/ha: 80%
Spodoptera frugiperda
  mortality at 100 g/ha: 100%
Diabrotica balteata
  pest or weed control at 32 µg/disc, 100 g/ha: 100%
Rhipicephalus microplus [1]
  pest or weed control at 5 µg/cm2: 90%
Rhipicephalus microplus [2]
  pest or weed control at 0.004 mg: 80%

## C[C@H](NC(=O)c1cc(Br)cc(Br)c1)c1ncnn1-c1ccc(C#N)cn1 [II- 13]
Diabrotica balteata
  pest or weed control at 160 µg/disc, 500 g/ha: 100%

## C[C@H](NC(=O)c1cc(Cl)cc(OC(F)(F)F)c1)c1ncnn1-c1cc(NC(=O)c2ccc(F)cc2)ccn1 [II- 20]
Spodoptera frugiperda
  mortality at 500 g/ha: 100%
